How the values were obtained:
male ZSF1 rats [1] = assay: Treatment of male ZSF1 rats for 24 weeks with 2-hydroxyestradiol or 2-methoxyestradiol; format: in vivo, rat
Protocol: Male ZSF1 rats were treated continuously for 24 weeks with polyethylene glycol 400 (PEG 400) (Sigma, St. Louis, Mo.) or one of three doses of 2-hydroxyestradiol or 2-methoxyestradiol (Steraloids, Inc. Newport, R.I.) dissolved in PEG 400. The three doses were 1 ug/kg/hr, 3 ug/kg/hr or 10 ug/kg/hr. Female ZSF1 rats were treated continuously for 24 weeks with either PEG 400 or 10 ug/kg/hr of 2-hydroxyestradiol. Female ZSF1 rats were ovarectomized at 11 weeks of age. For all animals, both male and female, treatments with estradiol metabolites were begun at approximately 13 weeks of age. One group of male ZSF1 rats received only PEG 400 but were pair fed to receive the same daily food intake as the male ZSF1 rats treated with 10 ug/kg/hr 2-hydroxyestradiol. Treatment was administered via subcutaneous implanted pumps (Alzet Osmotic Pump, Model 2ML4, Alza Corporation, Palo Alto, Calif.). The study was designed to evaluate treatment effects and dose responses on body weight, food intake, water intake, urine output, urinary protein excretion, cholesterol levels, plasma glucose levels and glucose tolerance.
Stock solutions of both 2-hydroxyestradiol and 2-methoxyestradiol were made by dissolving the required amount of estradiol metabolite in PEG 400. This solution was diluted in PEG 400 to deliver the three required doses based on the mean weight of each treatment group and the stated volume delivery rate for each lot of osmotic pumps in the study. This stock solution was prepared fresh prior to each osmotic pump implantation in each group. The control solution of PEG 400 was created in the same manner.
All treatments were administered via a subcutaneously implanted osmotic pump (Alzet Osmotic Pump, Model 2ML4, Alza Corporation, Palo Alto, Calif.). Each lot of osmotic pumps were delivered with the stated rate of delivery and formulation concentrations were adjusted to ensure delivery of 1,3, or 10 ug/kg/hr based on the stated rate of delivery of each lot. Doses were adjusted for the mean weight of the animals in the treatment group obtained 24 hours prior to implantation of the osmotic minipump.
Animals were anesthetized prior to implantation of an osmotic minipump with halothane and oxygen (2.5 liter/min) delivered by a Fluotec 3 anesthetic device (Ohmeda, Steeton, UK). After lightly anesthetizing each animal, implantation was accomplished by shaving the back and creating a half-inch incision in which to insert the osmotic minipump. The incision was then closed with wound clips that were removed in seven days. Osmotic minipumps were replaced at 33-day intervals and each time a particular animal received an osmotic minipump, the insertion point was changed.
Metabolic cages (Nalgene, Rochester, N.Y.) were used in this study. Animals were placed in metabolic cages for 48 hours. The first 24-hour period was considered an acclimation period, while food and fluid intake and urine volume were measured during the second 24-hour period. Additionally, a tail vein sample was obtained to measure blood glucose, sodium, potassium, albumin and creatinine. The blood was further analyzed to assess creatinine clearance, fractional sodium excretion, fractional potassium excretion and fractional albumin excretion. In addition, the following criteria were also assessed while the animals were in the metabolic cages: body weight, feed intake, water intake, urine output, urinary protein, urinary albumin, urinary glucose, urinary sodium and urinary potassium.
Body weights were assessed 24 hours before pump implantation and those weights were used to calculate the dosage of drug or vehicle to be given to each animal based on the mean body weight of each group. Animals were weighed approximately once every two months prior to being placed in a metabolic cage.
Food intake was measured by filling the food containers with standard powder laboratory food up to a total weight of 250 grams. […]

male ZSF1 rats [2] = assay: as above; format: in vivo, rat; details: 10 ug/kg/hr, 28 weeks, versus control animals
rats = details: Oparil et al., Circulation 95:1301 (1997); cited from earlier work
[3] = Kernan et al., 2000; cited from earlier work
[4] = male, 10 ug/kg/hr, 24 weeks, versus control animals
[5] = male, 1, 3 or 10 ug/kg/hr s.c. osmotic pump, 24 weeks, versus control

COc1cc2c(cc1O)CC[C@@H]1[C@@H]2CC[C@]2(C)[C@@H](O)CC[C@@H]12 [2-methoxyestradiol, estra-1,3,5 (10)-triene-2-methoxy-3,17-diol (17β)]
Leptin levels (FIG. 11) (male ZSF1 rats [1]; male, 10 ug/kg/hr, 20 weeks, versus control animals): clearly reduced | 24-hour urine output (FIG. 13) (male ZSF1 rats [1]; [4]): lower | 24-hour water intake (FIG. 12) (male ZSF1 rats [1]; [4]): lower | Blood urea nitrogen (FIG. 10) (male ZSF1 rats [1]; male, 10 ug/kg/hr, 24 weeks, versus control groups): lower | Plasma level of glucose after administration of 2 g/4 ml/kg glucose (oral glucose tolerance test, FIGS. 8 and 9) (male ZSF1 rats [1]; male, 10 ug/kg/hr, treated for 14 to 15 weeks, versus control groups): lower | Body weight gain (FIGS. 4 and 5) (male ZSF1 rats [1]; [5]): less body weight gain | Food intake (male ZSF1 rats [1]; [5]): lower food intake | Urinary protein excretion (FIG. 7) (male ZSF1 rats [1]; male, 1, 3 or 10 ug/kg/hr, after 24 weeks of treatment, versus control animals): lower | Glycated hemoglobin (HbA1c) (FIG. 14) (male ZSF1 rats [2]): lower

C[C@]12CC[C@@H]3c4ccc(O)cc4CC[C@H]3[C@@H]1CC[C@@H]2O [17β-estradiol]
Body weight of rats (rats): reduction | Vascular protection (rats): vascular protection

CC(N)C(O)c1ccccc1 (stereo not drawn) [phenylpropanolamine]
Adverse effect (stroke) [3]: causes stroke
